Holding throughout (assay type): cell-based
The test system of assay [1] is Escherichia coli IFO 12734. Description: in vitro antibacterial activity, agar plate dilution method (MIC). The following applies: IFO12734, read-out: Antimicrobial spectrum MIC. How it is done:
(§1) The in vitro antibacterial activities of the compounds provided by the present invention were tested by a standard method of Chemotherapy Society of Japan, i.e. an agar plate dilution method disclosed in CHEMOTHERAPY Vol. 29, pages 76–79, 1981, and the activities of them on anaerobic bacteria were tested by a method disclosed in CHEMOTHERAPY Vol. 27, 559–590, 1979. The results were shown in terms of the minimum inhibition concentration (MIC, μg/ml) for the growth of the bacteria.

In assay [2] the test system is Staphylococcus aureus Clin-211(MRSA). Described as above. To be noted: read-out: Antimicrobial spectrum MIC. The procedure:
as §1

The test system of assay [3] is Enterococcus faecalis RIMD 3116001. The description is as above. The following applies: RIMD3116001, read-out: Antimicrobial spectrum MIC. The procedure: as §1
Assay [4] concerns Staphylococcus epidermidis IFO 12993. Described as above. To be noted: IFO12993, read-out: Antimicrobial spectrum MIC. The procedure: as §1
For assay [5], the system named is Pseudomonas aeruginosa CSJ 1853. The assay is described as above. The following applies: CSJ1853, read-out: Antimicrobial spectrum MIC. The procedure: as §1
The subject of assay [6] is Staphylococcus aureus IFO 13276. Described as above. The following applies: IFO13276, read-out: Antimicrobial spectrum MIC. The procedure: as §1
The subject of assay [7] is Branhamella catarrhalis IID 5233. The assay is described as above. The following applies: Moraxella catarrhalis, IID5233, read-out: Antimicrobial spectrum MIC. The procedure: as §1
Assay [8] deals with Staphylococcus aureus JCM 2874. Described as above. The following applies: JCM2874, read-out: Antimicrobial spectrum MIC. How it is done: as §1
Assay [9] deals with Staphylococcus aureus IID 803(Smith). The assay is described as above. To be noted: IID803, read-out: Antimicrobial spectrum MIC. The procedure: as §1
Assay [10] has as its system Streptococcus pneumoniae IID 553. Described as above. To be noted: IID553, read-out: Antimicrobial spectrum MIC. The procedure: as §1
Assay [11] has as its system Klebsiella pneumoniae IID 865. The description is as above. To be noted: IID865, read-out: Antimicrobial spectrum MIC. How it is done:
as §1

Assay [12] deals with Micrococcus luteus KI 3122. The assay is described as above. The following applies: KI3122, read-out: Antimicrobial spectrum MIC. How it is done: as §1
For assay [13], the system named is Enterococcus faecalis CSJ 1212. Described as above. To be noted: CSJ1212, read-out: Antimicrobial spectrum MIC. How it is done: as §1
Assay [14] relates to Haemophilus influenzae IID 984. The assay is described as above. The following applies: IID984, read-out: Antimicrobial spectrum MIC. The procedure: as §1
The test system of assay [15] is Propionibacterium acnes JCM 6425. Description: in vitro antibacterial activity on anaerobic bacteria (MIC). The following applies: Cutibacterium acnes, JCM6425; Propionibacterium acnes JCM 6425, anaerobic; read-out: Antimicrobial spectrum MIC. The procedure:
as §1

Assay [16] has as its system Bacteroides thetaiotaomicron ATCC 29741. Described as above. To be noted: ATCC29741; Bacteroides thetaiotaomicron ATCC 29741, anaerobic; read-out: Antimicrobial spectrum MIC. The procedure:
as §1

The test system of assay [17] is Bacteroides fragilis GAI 0675. The assay is described as above. To be noted: GAI0675; Bacteroides fragilis GAI 0675, anaerobic; read-out: Antimicrobial spectrum MIC. The procedure: as §1
In assay [18] the test system is Bacillus subtilis JCM 2499. As to the kind of experiment: in vitro antibacterial activity, agar plate dilution method (MIC). The following applies: JCM2499, read-out: Antimicrobial spectrum MIC. How it is done: as §1

Each structure is given as a SMILES string. ≈ marks a conversion by molar mass, not a printed value.

Take `CCOC(=O)c1cc(C2CC2)c2c(C)c(-c3cc(F)c(CN)s3)ccn2c1=O` [Example 111, Ethyl 8-(5-aminomethyl-4-fluorothiophen-2-yl)-1-cyclopropyl-9-methyl-4-oxo-4H-quinolizine-3-carboxylate]: the MIC in [1] was 0.063 µg/mL (≈ 0.157 µM); in assay [2] it was 0.25 µg/mL (≈ 0.624 µM); in [3] it was 0.125 µg/mL (≈ 0.312 µM); in assay [4], 0.031 µg/mL (≈ 0.0774 µM); in assay [5] it was 0.25 µg/mL (≈ 0.624 µM); in assay [6], 0.016 µg/mL (≈ 0.04 µM). In addition, the MIC in assay [7] was found to be 0.031 µg/mL (≈ 0.0774 µM); in assay [8], 0.031 µg/mL (≈ 0.0774 µM); in assay [9], 0.016 µg/mL (≈ 0.04 µM); in assay [10] it was 0.125 µg/mL (≈ 0.312 µM); in [11], 0.008 µg/mL (≈ 0.02 µM); in [12], 0.25 µg/mL (≈ 0.624 µM). Moreover, the MIC in [13] came out at 0.063 µg/mL (≈ 0.157 µM); in [14], 0.008 µg/mL (≈ 0.02 µM); in assay [15], 0.125 µg/mL (≈ 0.312 µM); in [16] it was 0.5 µg/mL (≈ 1.25 µM); in [17], 0.25 µg/mL (≈ 0.624 µM).
Consider `Cc1c(-c2ccc(CN)o2)ccn2c(=O)c(C(=O)O)cc(C3CC3)c12` [Example 113, 8-(5-Aminomethylfuran-2-yl)-1-cyclopropyl-9-methyl-4-oxo-4H-quinolizine-3-carboxylic acid], for which the MIC is 0.063 µg/mL (≈ 0.186 µM) in assay [1]; 0.5 µg/mL (≈ 1.48 µM) in assay [3]; 0.016 µg/mL (≈ 0.0473 µM) in [18]; 1 µg/mL (≈ 2.96 µM) in assay [5]; 0.031 µg/mL (≈ 0.0916 µM) in assay [6]; 0.125 µg/mL (≈ 0.369 µM) in assay [7]. The MIC in [8] came out at 0.063 µg/mL (≈ 0.186 µM); in assay [10], 0.5 µg/mL (≈ 1.48 µM); in assay [11] it was 0.008 µg/mL (≈ 0.0236 µM); in assay [12], 0.25 µg/mL (≈ 0.739 µM); in assay [13] it was 0.5 µg/mL (≈ 1.48 µM); in assay [14] it was 0.031 µg/mL (≈ 0.0916 µM). Moreover, the MIC was determined as 2 µg/mL (≈ 5.91 µM) in assay [16] and 1 µg/mL (≈ 2.96 µM) in [17].
For the molecule `CC(=O)c1ccc(-c2ccn3c(=O)c(C(=O)O)cc(C4CC4)c3c2C)cc1` [Example 28, 8-(4-Acetylphenyl)-1-cyclopropyl-9-methyl-4-oxo-4H-quinolizine-3-carboxylic acid], the MIC in assay [1] was 0.25 µg/mL (≈ 0.692 µM); in assay [2], 0.125 µg/mL (≈ 0.346 µM); in assay [3] it was 0.25 µg/mL (≈ 0.692 µM); in assay [4], 0.031 µg/mL (≈ 0.0858 µM); in [18], at most 0.004 µg/mL; in [5], 2 µg/mL (≈ 5.53 µM). Also, the MIC in [6] was found to be 0.008 µg/mL (≈ 0.0221 µM); in assay [7], 0.031 µg/mL (≈ 0.0858 µM); in assay [8], 0.008 µg/mL (≈ 0.0221 µM); in assay [9], 0.008 µg/mL (≈ 0.0221 µM); in [10], 0.25 µg/mL (≈ 0.692 µM); in [11] it was 0.031 µg/mL (≈ 0.0858 µM). In addition, the MIC turned out to be 0.25 µg/mL (≈ 0.692 µM) in assay [12]; 0.125 µg/mL (≈ 0.346 µM) in assay [13]; 0.25 µg/mL (≈ 0.692 µM) in [14]; 0.25 µg/mL (≈ 0.692 µM) in assay [16]; 0.125 µg/mL (≈ 0.346 µM) in [17].
With `CC(=NO)c1ccc(-c2ccn3c(=O)c(C(=O)O)cc(C4CC4)c3c2C)cc1` [Example 38, 1-Cyclopropyl-8-[4-(1-hydroxyiminoethyl)phenyl]-9-methyl-4-oxo-4H-quinolizine-3-carboxylic acid], the MIC was 0.125 µg/mL (≈ 0.332 µM) in assay [1]; 0.063 µg/mL (≈ 0.167 µM) in [2]; 0.125 µg/mL (≈ 0.332 µM) in assay [3]; 0.016 µg/mL (≈ 0.0425 µM) in assay [4]; at most 0.004 µg/mL in [18]; 2 µg/mL (≈ 5.31 µM) in assay [5]. The MIC is 0.008 µg/mL (≈ 0.0213 µM) in [6]; 0.016 µg/mL (≈ 0.0425 µM) in [7]; at most 0.004 µg/mL in [8]; at most 0.004 µg/mL in assay [9]; 0.125 µg/mL (≈ 0.332 µM) in assay [10]; 0.031 µg/mL (≈ 0.0824 µM) in assay [11]. Besides, the MIC in assay [12] was 0.125 µg/mL (≈ 0.332 µM); in assay [13] it was 0.125 µg/mL (≈ 0.332 µM); in assay [14], 0.125 µg/mL (≈ 0.332 µM); in assay [16] it was 0.25 µg/mL (≈ 0.664 µM); in [17], 0.063 µg/mL (≈ 0.167 µM).
